# Measured values from patent publication US20230063462A1, “SULFONIMIDAMIDE COMPOUNDS AND COMPOSITIONS FOR TREATING CONDITIONS ASSOCIATED WITH NLRP ACTIVITY” (NOVARTIS AG, priority 2019, published 2023).
# Like-named read-outs stand apart in the source and are kept apart here.
# Tests used:
# THP-1 cells [1] = assay: hTHP-1 assay: gramicidin-stimulated IL-1β detection in PMA-treated THP-1 cells; type: cell-based, human
# Procedure: The following protocol is suitable for testing the activity of the compounds disclosed herein.
# 1. Experimental procedure • 1.1 Cell Culture • 1) Culture THP-1 cells in the complete RPMI-1640 medium with 10% FBS at 37° C., 5% CO2. • 2) Passage the cells every 3 days by inoculating 3×10^5 cells per ml. • 1.2 Compound Preparation • Prepare the 3-fold serial dilution of the compounds with DMSO in a 384-well LDV Microplate using TECAN EVO system to generate the compound source plate with 10 concentrations. […] HC: 100 μM CRID3 (MCC950)+5 μM gramicidin LC: 5 μM Gramicidin. • 1.5 IL-1β Detection • 1) Homogenize the 5× diluent #5 with a vortex and add 1 volume of stock solution in 4 volumes of distilled water. • 2) Thaw 20× stock solution of anti-IL1β-Cryptate-antibody and anti-IL1β XL-antibody. Dilute these two antibodies to 1× with detection buffer #3. • 3) Pre-mix the two ready-to-use antibody solutions just prior to use. • 4) Dispense 4 ul of pre-mixed Anti-IL1β antibodies working solution into all wells. • 5) Seal the plate and incubate overnight at 4° C. • 6) Read the cell plate using EnVison and plot Readout vs. the test compound concentration to calculate the IC50.
# 2. Data Analysis: • 1. IC50 of compounds can be calculated using the following formulas • Formula for IC50
# % inhibition=100−100×[HCave-Readout/(HCave−LCave)] • 2. Fit the normalized data in a dose-response manner using XLfit, and calculate the compound concentration.
# THP-1 cells [2] = assay: as above; type: cell-based, human; settings: Table B2, 10% FBS
# [3] = Homo sapiens, THP-1, Table B1, 2% fetal bovine serum, class symbol, read-out: hTHP-1 IC50
# [4] = Table B1, 2% fetal bovine serum, numeric value, read-out: hTHP-1 IC50
# [5] = Table B1, 2% fetal bovine serum, class symbol, read-out: hTHP-1 IC50
# [6] = Homo sapiens, THP-1, Table B2, 10% FBS, class symbol, read-out: hTHP-1 IC50 in 10% FBS
# [7] = Homo sapiens, THP-1, Table B2, 10% FBS, numeric value, read-out: hTHP-1 IC50 in 10% FBS
# [8] = Homo sapiens, THP-1, Table B1, 2% fetal bovine serum, numeric value, read-out: hTHP-1 IC50
Structure (SMILES),IC50 (THP-1 cells [1]; [4]) [µM],IC50 (THP-1 cells [1]; [5]) [µM],further results
"CC(C)(O)c1ncc(S(=O)(=NC(=O)Nc2c3c(cc4c2CC4)CC3)NC#N)s1 (single isomer, unassigned) [Example 23, (S) or (R)-N-cyano-2-(2-hydroxypropan-2-yl)-N′-(tricyclo[6.2.0.03,6]deca-1,3(6),7-trien-2-ylcarbamoyl)thiazole-5-sulfonimidamide]",0.0389,,IC50 (THP-1 cells [1]; [3]): 0.008 to 0.04 µM
"CC(C)(O)c1ncc(S(=O)(=NC(=O)Nc2c3c(cc4c2CC4)CC3)NC#N)s1 (single isomer, unassigned) [Example 24, (R) or (S)-N-cyano-2-(2-hydroxypropan-2-yl)-N′-(tricyclo[6.2.0.03,6]deca-1,3(6),7-trien-2-ylcarbamoyl)thiazole-5-sulfonimidamide]",0.0097,0.008 to 0.04,
"CC(C)(O)c1ncc(S(=O)(=NC(=O)Nc2c3c(cc4c2CC4)CCC3)NC#N)s1 (single isomer, unassigned) [Example 25, (S) or (R)-N-cyano-2-(2-hydroxypropan-2-yl)-N′-((2,4,5,6-tetrahydro-1H-cyclobuta[f]inden-3-yl)carbamoyl)thiazole-5-sulfonimidamide]",0.0275,,IC50 (THP-1 cells [1]; [3]): 0.008 to 0.04 µM
"CC(C)(O)c1ncc(S(=O)(=NC(=O)Nc2c3c(cc4c2CC4)CCC3)NC#N)s1 (single isomer, unassigned) [Example 26, (R) or (S)-N-cyano-2-(2-hydroxypropan-2-yl)-N′-((2,4,5,6-tetrahydro-1H-cyclobuta[f]inden-3-yl)carbamoyl)thiazole-5-sulfonimidamide]",0.0135,0.008 to 0.04,
"CC(C)(O)c1ncc(S(=O)(=NC(=O)Nc2c3c(cc4c2CCC4)CCC3)NC#N)s1 (single isomer, unassigned) [Example 27, (S) or (R)-N-cyano-N′-((1,2,3,5,6,7-hexahydro-s-indacen-4-yl)carbamoyl)-2-(2-hydroxypropan-2-yl)thiazole-5-sulfonimidamide]",0.0928,0.04 to 0.2,
"CC(C)(O)c1ncc(S(=O)(=NC(=O)Nc2c3c(cc4c2CCC4)CCC3)NC#N)s1 (single isomer, unassigned) [Example 28, (R) or (S)-N-cyano-N′-((1,2,3,5,6,7-hexahydro-s-indacen-4-yl)carbamoyl)-2-(2-hydroxypropan-2-yl)thiazole-5-sulfonimidamide]",0.0308,0.008 to 0.04,
"CC(C)(O)c1coc(S(=O)(=NC(=O)Nc2c3c(cc4c2CCC4)CCC3)NC#N)c1 (single isomer, unassigned) [Example 29, (R) or (S)-N-cyano-N′-(1,2,3,5,6,7-hexahydro-s-indacen-4-ylcarbamoyl)-4-(2-hydroxypropan-2-yl)furan-2-sulfonimidamide]",0.0582,0.04 to 0.2,
"CC(C)(O)c1coc(S(=O)(=NC(=O)Nc2c3c(cc4c2CCC4)CCC3)NC#N)c1 (single isomer, unassigned) [Example 30, (S) or (R)-N-cyano-N′-((1,2,3,5,6,7-hexahydro-s-indacen-4-yl)carbamoyl)-4-(2-hydroxypropan-2-yl)furan-2-sulfonimidamide]",0.0167,0.008 to 0.04,
"CC(C)(O)c1cccc(S(=O)(=NC(=O)Nc2c3c(cc4c2CCC4)CCC3)NC#N)c1 (single isomer, unassigned) [Example 31, (S) or (R)-N-cyano-N′-((1,2,3,5,6,7-hexahydro-s-indacen-4-yl)carbamoyl)-3-(2-hydroxypropan-2-yl)benzenesulfonimidamide]",0.0338,0.008 to 0.04,
"NS(=O)(=NC(=O)Nc1c2c(nc(C3CC3)c1C1CC1)CCC2)c1ccn(C2CC2)n1 (single isomer, unassigned) [Example 878, (R) or (S)-1-cyclopropyl-N′-((2,3-dicyclopropyl-6,7-dihydro-5H-cyclopenta[b]pyridin-4-yl)carbamoyl)-1H-pyrazole-3-sulfonimidamide]",,,IC50 (THP-1 cells [2]; class symbol): 0.04 to 0.2 µM; IC50 (THP-1 cells [2]; numeric value): 0.088 µM
"NS(=O)(=NC(=O)Nc1c2c(nc(C3CC3)c1C1CC1)CCC2)c1ccn(C2CC2)n1 (single isomer, unassigned) [Example 879, (S) or (R)-1-cyclopropyl-N′-((2,3-dicyclopropyl-6,7-dihydro-5H-cyclopenta[b]pyridin-4-yl)carbamoyl)-1H-pyrazole-3-sulfonimidamide]",,,IC50 (THP-1 cells [2]; class symbol): 1 to 5 µM; IC50 (THP-1 cells [2]; numeric value): 4.43 µM
"NS(=O)(=NC(=O)Nc1c2c(nc(C(F)(F)F)c1C1CC1)CCC2)c1nn(C2CC2)cc1F (single isomer, unassigned) [Example 880, (R) or (S)-1-cyclopropyl-N′-((3-cyclopropyl-2-(trifluoromethyl)-6,7-dihydro-5H-cyclopenta [b]pyridin-4-yl)carbamoyl)-4-fluoro-1H-pyrazole-3-sulfonimidamide]",,,IC50 (THP-1 cells [2]; class symbol): 0.04 to 0.2 µM; IC50 (THP-1 cells [2]; numeric value): 0.0539 µM
"NS(=O)(=NC(=O)Nc1c2c(nc(C(F)(F)F)c1C1CC1)CCC2)c1nn(C2CC2)cc1F (single isomer, unassigned) [Example 881, (S) or (R)-1-cyclopropyl-N′-((3-cyclopropyl-2-(trifluoromethyl)-6,7-dihydro-5H-cyclopenta [b]pyridin-4-yl)carbamoyl)-4-fluoro-1H-pyrazole-3-sulfonimidamide]",,,IC50 (THP-1 cells [2]; class symbol): 1 to 5 µM; IC50 (THP-1 cells [2]; numeric value): 1.41 µM
"NS(=O)(=NC(=O)Nc1c2c(nc(C3CC3)c1C1CC1)CCC2)c1nn(C2CC2)cc1F (single isomer, unassigned) [Example 882, (R) or (S)-1-cyclopropyl-N′-((2,3-dicyclopropyl-6,7-dihydro-5H-cyclopenta[b]pyridin-4-yl)carbamoyl)-4-fluoro-1H-pyrazole-3-sulfonimidamide]",,,IC50 (THP-1 cells [2]; class symbol): 0.04 to 0.2 µM; IC50 (THP-1 cells [2]; numeric value): 0.102 µM
"NS(=O)(=NC(=O)Nc1c2c(nc(C(F)(F)F)c1C1CC1)CCC2)c1ccn(C2CC2)n1 (single isomer, unassigned) [Example 898, (R) or (S)-1-cyclopropyl-N′-((3-cyclopropyl-2-(trifluoromethyl)-6,7-dihydro-5H-cyclopenta [b]pyridin-4-yl)carbamoyl)-1H-pyrazole-3-sulfonimidamide]",,,IC50 (THP-1 cells [1]; [6]): 0.04 to 0.2 µM; IC50 (THP-1 cells [1]; [7]): 0.114 µM
"CC(C)(O)c1ncc(S(=O)(=NC(=O)Nc2c3c(cc4c2CCC4)CCC3)NC#N)s1 (centres unmarked) [Example 3, N-cyano-N′-((1,2,3,5,6,7-hexahydro-s-indacen-4-yl)carbamoyl)-2-(2-hydroxypropan-2-yl)thiazole-5-sulfonimidamide]",,,IC50 (THP-1 cells [1]; [3]): 0.04 to 0.2 µM; IC50 (THP-1 cells [1]; [8]): 0.034 µM
"CC(C)(O)c1nc(CO)c([S@](=O)(=NC(=O)Nc2c3c(nc4c2CCC4(C)C)CCC3)NC#N)s1 [Example 12, (S) or-N-cyano-N′-((3,3-dimethyl-1,2,3,5,6,7-hexahydrodicyclopenta[b,e]pyridin-8-yl)carbamoyl)-4-(hydroxymethyl)-2-(2-hydroxypropan-2-yl)thiazole-5-sulfonimidamide]",,,IC50 (THP-1 cells [1]; [3]): 0.04 to 0.2 µM; IC50 (THP-1 cells [1]; [8]): 0.419 µM
"NS(=O)(=NC(=O)Nc1c2c(nc(C(F)(F)F)c1C1CC1)CCC2)c1ccn(C2CC2)n1 (centres unmarked) [Example 873, 1-Cyclopropyl-N′-((3-cyclopropyl-2-(trifluoromethyl)-6,7-dihydro-5H-cyclopenta[b]pyridin-4-yl)carbamoyl)-1H-pyrazole-3-sulfonimidamide]",,,IC50 (THP-1 cells [1]; [6]): 0.04 to 0.2 µM; IC50 (THP-1 cells [1]; [7]): 0.128 µM
"NS(=O)(=NC(=O)Nc1c2c(nc(C3CC3)c1C1CC1)CCC2)c1ccn(C2CC2)n1 (centres unmarked) [Example 877, 1-Cyclopropyl-N′-((2,3-dicyclopropyl-6,7-dihydro-5H-cyclopenta[b]pyridin-4-yl)carbamoyl)-1H-pyrazole-3-sulfonimidamide]",,,IC50 (THP-1 cells [1]; [6]): 0.04 to 0.2 µM; IC50 (THP-1 cells [1]; [7]): 0.154 µM

# Continued, in another order:
IC50 (THP-1 cells [1]; [4]) [µM],IC50 (THP-1 cells [1]; [5]) [µM],Structure (SMILES),further results
0.0795,0.04 to 0.2,"CC(C)(O)c1cccc(S(=O)(=NC(=O)Nc2c3c(cc4c2CCC4)CCC3)NC#N)c1 (single isomer, unassigned) [Example 32, (R) or (S)-N-cyano-N′-((1,2,3,5,6,7-hexahydro-s-indacen-4-yl)carbamoyl)-3-(2-hydroxypropan-2-yl)benzenesulfonimidamide]",
1.53,1 to 5,"N#CNS(=O)(=NC(=O)Nc1c2c(cc3c1CCC3)CCC2)c1ccccc1 (single isomer, unassigned) [Example 33, (S) or (R)-N-cyano-N′-((1,2,3,5,6,7-hexahydro-s-indacen-4-yl)carbamoyl)benzenesulfonimidamide]",
0.355,0.2 to 1,"N#CNS(=O)(=NC(=O)Nc1c2c(cc3c1CCC3)CCC2)c1ccccc1 (single isomer, unassigned) [Example 34, (R) or (S)-N-cyano-N′-((1,2,3,5,6,7-hexahydro-s-indacen-4-yl)carbamoyl)benzenesulfonimidamide]",
